# Source: ChEMBL document CHEMBL1139143, “Synthesis and structure-activity relationships of N-substituted spiropiperidines as nociceptin receptor ligands” (Bioorg Med Chem Lett, 2007)
# Tests used:
# Assay type in all cases: ADME, organism-based
# [1] = AUC (0 to 6 hrs) in rat; parameters: time < 6 hr; conditions: plasma
# [2] = Cmax in rat after 4 hrs; conditions: in vivo
# [3] = Drug level in rat after 6 hrs; conditions: in vivo, read-out: Drug uptake
compound,measurement,setting,value
CC1(C)CCC(N2CCC3(CC2)C(=O)NCN3c2ccccc2)c2cc(Cl)c(Cl)cc21 (stereo not drawn),AUC(0-t) at 6 h,[1],2.11 µM·h
same,Cmax,[2],518 nM
same,concentration at 6 h,[3],467 nM
